# Assays:
# [1] = tested on: Hela cells expressing HU and TMTX resistance gene; assay: Hydroxyurea and Trimetrexate cytotoxic assay: selective enrichment of transduced (GFP positive) Hela cells by FACS; assay type: cell-based; settings: three days, FIG. 2
# Protocol: Control and transduced Hela cells were incubated with HU and TMTX for 3 days, after which survival rate of both cell population were measured by FACS analysis. Hela cells were transduced with lentivector expressing GFP and the Hydroxyurea or Trimetrexate resistance genes. Three to five days after transduction, cell transduction efficiency was determined by measuring GFP fluorescence. Transduced Hela cells were treated with the appropriate concentration of cytotoxic compounds and survival rate were measured by FACS analysis. Next, the ability of either HU or TMTX to selectively enrich transduced Hela cells was evaluated by FACS. Hela cells were transduced as outlined above and then cultured in control media or media including 25 μM HU, 100 μM HU, 1 nM TMTX or 10 nM TMTX. After culture in the indicated conditions for three days, the proportion of transduced cells (GFP positive) versus non-transduced cells was determined by FACS and the results plotted.
# [2] = tested on: GFP expressing blood cells; assay: In vivo selective enrichment of blood cells expressing HU resistance gene after bone marrow transplantation; parameters: species or system C57/B16 mice
# Protocol: FIG. 3: In vivo selective enrichment of blood cells expressing HU and TMTX resistance gene. Bone marrow transplantation experiments were performed in C57/b16 mice. Total bone marrow was obtained from large bones of C57/B16 mice and maintained for 24 h in IMDM medium supplemented with 100 ng/ml of SCF. Bone marrow cells were then transduced with 10^9 lentivector particles for 8 hours before being injected into the tail vein of irradiated C57/B16 mice. Six to eight weeks later, blood samples were taken and GFP expression was measured by FACS. After which mice were injected intraperitoneally with either HU or TMTX with initial doses of HU of 200, 500 and 1000 mg/kg per day and initial doses of TMTX of 10, 25, 50 mg/kg with 2 injections per week. GFP expressing blood cells were measured once a week. (A) Irradiated mice, transplanted with bone marrow cells and transduced with a lentivector expressing GFP and the hydroxyurea resistance (GFP-HU).
# In order to more directly assess the ability of HU and TMTX to select cells in vivo studies were undertaken in mice injected with transduced cells. […] Six to eight weeks later, blood samples were taken and GPF expression was measured by FACS. […] GFP expressing blood cells were measured once a week.
Compound,"selection of transduced cells (GFP positive versus non-transduced, FACS) ([1]; 10 nM TMTX (tested at 1 nM and 10 nM))","selection of transduced cells (GFP positive versus non-transduced, FACS) ([1]; 25 μM HU and 100 μM HU)","transient increase in GFP-positive leukocytes ([2]; irradiated mice transplanted with bone marrow cells transduced with GFP-HU lentivector, hydroxyurea-treated, FIG. 3A)","circulating GFP positive cells ([2]; some treated animals, one week after HU injection, intraperitoneal, transient increase, FIG. 3)"
"COc1cc(NCc2ccc3nc(N)nc(N)c3c2C)cc(OC)c1OC [TMTX, Trimetrexate]",significant selection,–,–,–
"NC(=O)NO [HU, Hydroxyurea]",–,modest selection,up to 8%,5%-10%

# — patent US20160010094A1, “TRANSGENIC CELL SELECTION” (UNIVERSITE DE GENEVE, priority 2013, published 2016)
